Legend:
Type in all cases: cell-based, mouse
[1] = test system: NIH3T3 cells overexpressing cAMP-PK-CS; assay: MTT cell viability, cAMP-PK-CS overexpressing cells vs parental line; settings: cAMP-PK-CS high-expressing cells / parental cell line, 3 to 4 days
In short: (§1)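 NIH3T3 high expressers vs parental; 2-fold serial dilution of drugs (DMSO stocks), 9 points; 10% CS-DMEM; 3–4 d culture; MTT 4 h 37 °C, stop with 0.04N HCl/isopropanol; A574/655. Readout is log(IC40 ratio).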

[2] = test system: NIH3T3 cells overexpressing m-calpain; assay: MTT cell viability, m-calpain overexpressing cells vs parental line; settings: m-calpain high-expressing cells / parental cell line, 3 to 4 days
In short: as §1

[3] = test system: NIH3T3 cells overexpressing PDGF-R-Del; assay: MTT cell viability, PDGF-R-Del overexpressing cells vs parental line; settings: PDGF-R-Del high-expressing cells / parental cell line, 3 to 4 days
In short: (§2)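 Stable NIH3T3 transfectants (cDNA in pRc-CMV-type vector, G-418-selected, high expressers picked by Western blot) and parental cells were seeded at 1×10^5 cells/ml into twofold serial drug dilutions and grown 3–4 days. MTT formazan was read at 574/655 nm, and log ratios of IC40 values were derived.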

[4] = test system: NIH3T3 cells overexpressing HSP9O; assay: MTT cell viability, HSP9O overexpressing cells vs parental line; settings: HSP9O high-expressing cells / parental cell line, 3 to 4 days
In short: as §2

[5] = test system: NIH3T3 cells overexpressing JNK-DN; assay: MTT cell viability, JNK-DN overexpressing cells vs parental line; settings: JNK-DN high-expressing cells / parental cell line, 3 to 4 days
In short: as §2

[6] = test system: NIH3T3 cells overexpressing Ha-ras; assay: MTT cell viability, drug sensitivity of Ha-ras overexpressing cells vs parental line; settings: Ha-ras high-expressing cells / parental cell line, 3 to 4 days
In short: as §1

[7] = test system: NIH3T3 cells overexpressing ERK-DN; assay: MTT cell viability, ERK-DN overexpressing cells vs parental line; settings: ERK-DN high-expressing cells / parental cell line, 3 to 4 days
In short: as §1

[8] = test system: NIH3T3 cells overexpressing RhoA; assay: MTT cell viability, RhoA overexpressing cells vs parental line; settings: RhoA high-expressing cells / parental cell line, 3 to 4 days
In short: as §2

[9] = test system: NIH3T3 cells overexpressing HSP4O; assay: MTT cell viability, HSP4O overexpressing cells vs parental line; settings: HSP4O high-expressing cells / parental cell line, 3 to 4 days
In short: as §2

[10] = test system: NIH3T3 cells overexpressing cystatin alpha; assay: MTT cell viability, cystatin alpha overexpressing cells vs parental line; settings: cystatin alpha high-expressing cells / parental cell line, 3 to 4 days
In short: as §2

[11] = test system: NIH3T3 cells overexpressing p16/INK4A; assay: MTT cell viability, p16/INK4A overexpressing cells vs parental line; settings: p16/INK4A high-expressing cells / parental cell line, 3 to 4 days
In short: as §2

[12] = test system: NIH3T3 cells, TPA (PKC downreg); assay: MTT cell viability, TPA (PKC downreg) cells vs parental line; settings: 3 to 4 days
[13] = test system: NIH3T3 cells overexpressing PKCepsilon-KN; assay: MTT cell viability, PKCepsilon-KN overexpressing cells vs parental line; settings: 3 to 4 days
In short: as §1

[14] = test system: NIH3T3 cells overexpressing HNF3b; assay: MTT cell viability, HNF3b overexpressing cells vs parental line; settings: HNF3b high-expressing cells / parental cell line, 3 to 4 days
In short: as §1

[15] = test system: NIH3T3 cells overexpressing T.Tn; assay: MTT cell viability, T.Tn overexpressing cells vs parental line; settings: T.Tn high-expressing cells / parental cell line, 3 to 4 days
In short: as §1

[16] = test system: NIH3T3 cells overexpressing caspase-3; assay: MTT cell viability, caspase-3 overexpressing cells vs parental line; settings: caspase-3 high-expressing cells / parental cell line, 3 to 4 days
In short: as §1

[17] = test system: NIH3T3 cells overexpressing DAN; assay: MTT cell viability, DAN overexpressing cells vs parental line; settings: DAN high-expressing cells / parental cell line, 3 to 4 days
In short: as §2

[18] = test system: NIH3T3 cells overexpressing PKCalpha-KN; assay: MTT cell viability, PKCalpha-KN overexpressing cells vs parental line; settings: 3 to 4 days
In short: as §1

[19] = test system: NIH3T3 cells overexpressing N-ras; assay: MTT cell viability, N-ras overexpressing cells vs parental line; settings: N-ras high-expressing cells / parental cell line, 3 to 4 days
In short: as §2

[20] = PKCepsilon-KN (first of two lines) high-expressing cells / parental cell line
[21] = PKCepsilon-KN (second of two lines) high-expressing cells / parental cell line
[22] = PKCalpha-KN (first of two lines) high-expressing cells / parental cell line
[23] = PKCalpha-KN (second of two lines) high-expressing cells / parental cell line

| Substance | logarithmic value of ratio of IC40 values [1] | logarithmic value of ratio of IC40 values [2] | logarithmic value of ratio of IC40 values [3] | logarithmic value of ratio of IC40 values [4] | logarithmic value of ratio of IC40 values [5] | logarithmic value of ratio of IC40 values [6] | logarithmic value of ratio of IC40 values [7] | logarithmic value of ratio of IC40 values [8] | logarithmic value of ratio of IC40 values [9] | logarithmic value of ratio of IC40 values [10] | logarithmic value of ratio of IC40 values [11] | logarithmic value of ratio of IC40 values [12] | logarithmic value of ratio of IC40 values [13, 20] | logarithmic value of ratio of IC40 values [13, 21] | logarithmic value of ratio of IC40 values [14] | logarithmic value of ratio of IC40 values [15] | logarithmic value of ratio of IC40 values [16] | logarithmic value of ratio of IC40 values [17] | logarithmic value of ratio of IC40 values [18, 22] | logarithmic value of ratio of IC40 values [18, 23] | also measured |
| --- | --- | --- | --- | --- | --- | --- | --- | --- | --- | --- | --- | --- | --- | --- | --- | --- | --- | --- | --- | --- | --- |
| ICE inhibitor-III [ICEin-3] | 0.00 | −0.06 | 0.00 | 0.22 | 0.00 | 0.32 | 0.00 | 0.19 | 0.11 | 0.32 | 0.15 | −0.09 | −0.21 | 0.33 | −0.09 | 0.30 | 0.13 | 0.00 | 0.12 | 0.33 | logarithmic value of ratio of IC40 values [19]: 0.38 |
| sodium vanadate | 0.00 | −0.10 | 0.00 | 0.02 | −0.17 | −0.33 | 0.00 | 0.28 | −0.03 | 0.08 | 0.11 | −0.03 | 0.09 | 0.18 | 0.22 | 0.46 | 0.14 | 0.30 | 0.23 | 0.08 | logarithmic value of ratio of IC40 values [19]: −0.09 |

Reference: patent US20040086901A1, “Database for analyzing gene function and method of analyzing gene function by dspa” (priority 2000, published 2004)
